In article PMC9959265, “Permethrin as a Potential Furin Inhibitor through a Novel Non-Competitive Allosteric Inhibition” (Molecules, 2023):

Key:
L-02 cells = test: Cellular cytotoxicity (CCK8), L-02; format: cell-based, human; details: L-02 normal liver cells (low furin expression), 24 or 48 h
Procedure: (§1) Furin is highly expressed in liver cancer cells and has specific effects on hepatocellular carcinoma. Therefore, human hepatocellular carcinoma cells Hep-G2 were selected as experimental cells, cervical carcinoma cells HeLa with similar furin expression in Hep-G2 were selected as control, and human permanent hepatocytes L-02 were selected as negative control. DMEM was used for HeLa, and 1640 medium was used for Hep-G2 and L-02. After incubation for 24 h with 100 μL complete medium in 96-well plates with 8000 cells per well, the medium was aspirated, 100 μL serum-free medium containing a concentration gradient of the compound was added and the samples were incubated. After 24 or 48 h the drug-containing medium was aspirated and 100 μL medium solution containing 10% CCK8 was added, subsequently, the absorbance was measured at 450 nm using a microplate reader after 1 h of incubation.

Hep-G2 cells = test: Cellular cytotoxicity (CCK8), Hep-G2; format: cell-based, human; details: Hep-G2 (high furin expression), 24 or 48 h
Procedure: as §1

furin [1] = target: T1, furin (Homo sapiens, UniProt P09958)
Procedure: For the measurement of enzymatic kinetics and inhibition kinetics, the substrate concentration gradients were set to 0 μM, 2 μM, 5 μM, 10 μM, 20 μM, 40 μM, 60 μM, 80 μM, 100 μM, 120 μM, and the compound concentration gradients to 0 μM, 25 μM, 50 μM, 100 μM. Furin was added to 100 mM HEPES assay system buffer (pH 6.0, containing 0.5% Triton X-100 and 5 mM CaCl2), followed by different concentrations of the compounds to be tested, preincubated at 37 °C for 5 min. Different concentrations of the substrate were added; the sample was incubated at 37 °C for 35 min, and quenched with 1% formic acid. The initial rate of the enzymatic reaction of furin was tested and the curve was plotted.

trypsin = test: Inhibition effect on trypsin (control protease); format: biochemical; details: Figure S1E
HeLa cells = test: Cellular cytotoxicity (CCK8), HeLa; format: cell-based; details: HeLa (high furin expression), 24 or 48 h
Procedure: as §1

furin [2] = target: T1, furin; test: Furin activity / inhibitor screening assay with Boc-R-V-R-R-AMC substrate; format: biochemical; set-up: His tag; host or cells: E. coli BL21 (DE3)
Procedure: Boc-Arg-Val-Arg-Arg-AMC (Boc-R-V-R-R-AMC) was used as a substrate for the detection of furin. It carries an AMC ([…]) moiety that fluoresces at an excitation wavelength of 370 nm and an emission wavelength of 460 nm.
The reaction was then incubated for 90 min at 37 °C, supplemented with 40 μM substrate, quenched using 1% formic acid and the enzyme activity was monitored using a Thermo Scientific Varioskan Flash Multi-Mode Microplate Reader.

T1 sequence (P09958 108-574 limits assumed): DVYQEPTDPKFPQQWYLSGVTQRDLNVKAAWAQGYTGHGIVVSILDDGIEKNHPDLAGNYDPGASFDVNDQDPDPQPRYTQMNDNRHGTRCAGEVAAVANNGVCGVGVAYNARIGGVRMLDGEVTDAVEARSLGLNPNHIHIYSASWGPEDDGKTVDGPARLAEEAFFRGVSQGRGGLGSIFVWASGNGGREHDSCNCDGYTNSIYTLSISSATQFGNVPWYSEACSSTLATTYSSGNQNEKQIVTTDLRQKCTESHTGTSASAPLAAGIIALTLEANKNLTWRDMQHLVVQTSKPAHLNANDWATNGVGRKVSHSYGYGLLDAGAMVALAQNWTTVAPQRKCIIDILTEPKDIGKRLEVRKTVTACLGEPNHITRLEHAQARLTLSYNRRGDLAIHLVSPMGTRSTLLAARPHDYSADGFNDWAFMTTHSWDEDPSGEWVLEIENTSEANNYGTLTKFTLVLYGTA

CC1(C)C(C=C(Cl)Cl)C1C(=O)OCc1cccc(Oc2ccccc2)c1 (stereo not drawn) [YJJ-B0887, permethrin]
cytotoxic effect (L-02 cells): much weaker
cytotoxic effect (Hep-G2 cells): stronger cytotoxic effect
mode of inhibition (furin [1]): non-competitive inhibitor
Km of furin on addition of inhibitor (furin [1]; permethrin 0, 25, 50, 100 μM): does not change
maximum reaction rate of furin on addition of inhibitor (furin [1]; permethrin 0, 25, 50, 100 μM): decreases
inhibitory activity against trypsin (trypsin): to neither enzyme, permethrin has inhibitory activity
cytotoxic effect (HeLa cells): higher cytotoxic effect
inhibition at 50 µM (furin [2]; 50 μM compound, read-out: Inhibition Rate (50 μM)): 55.9%
IC50 (furin [2]; furin, 40 μM Boc-R-V-R-R-AMC, pH 6.0, 37 °C): 38.7 µM
